According to patent US6339098B1, “2,1-benzisothiazoline 2,2-dioxides” (American Home Products Corporation, priority 1999, dated 2002):

Biological target: T1, human PR (hPR-B) (Homo sapiens, UniProt P06401)
T1 construct: expressed in transfected cells; host or cells: CV-1 cells (electroporation with pLEM-hPR-B and pGL3-2xPRE-luciferase)
T1 sequence (P06401 1-933): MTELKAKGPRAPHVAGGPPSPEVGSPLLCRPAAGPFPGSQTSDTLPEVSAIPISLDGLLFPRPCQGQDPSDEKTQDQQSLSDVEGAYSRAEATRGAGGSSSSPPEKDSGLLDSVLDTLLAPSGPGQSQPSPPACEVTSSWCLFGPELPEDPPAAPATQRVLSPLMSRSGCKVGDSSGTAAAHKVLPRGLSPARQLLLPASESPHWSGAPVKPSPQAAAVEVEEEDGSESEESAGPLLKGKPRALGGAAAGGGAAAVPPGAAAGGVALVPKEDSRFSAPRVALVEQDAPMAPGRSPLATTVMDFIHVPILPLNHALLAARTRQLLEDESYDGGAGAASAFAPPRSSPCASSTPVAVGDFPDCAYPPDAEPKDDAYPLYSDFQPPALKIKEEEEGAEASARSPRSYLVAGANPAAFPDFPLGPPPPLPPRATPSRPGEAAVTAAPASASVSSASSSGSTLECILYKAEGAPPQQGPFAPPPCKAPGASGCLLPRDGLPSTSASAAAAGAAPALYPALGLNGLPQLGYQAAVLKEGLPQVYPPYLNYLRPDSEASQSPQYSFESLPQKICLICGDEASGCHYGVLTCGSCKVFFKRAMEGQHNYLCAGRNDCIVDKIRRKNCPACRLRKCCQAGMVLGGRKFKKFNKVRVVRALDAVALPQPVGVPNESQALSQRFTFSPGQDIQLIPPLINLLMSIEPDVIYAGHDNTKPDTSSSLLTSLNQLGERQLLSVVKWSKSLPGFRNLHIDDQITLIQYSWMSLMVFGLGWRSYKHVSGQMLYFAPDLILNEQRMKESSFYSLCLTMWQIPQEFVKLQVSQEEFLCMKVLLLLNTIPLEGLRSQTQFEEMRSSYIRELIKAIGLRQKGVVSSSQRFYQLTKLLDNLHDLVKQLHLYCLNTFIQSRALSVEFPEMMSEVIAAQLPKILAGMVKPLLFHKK
Assay: PRE-luciferase reporter activity in CV-1 cells co-transfected with human PR and PRE-luciferase plasmids (antiprogestational activity)
Assay type: cell-based
Settings: CV-1 cells co-transfected with hPR-B and PRE-luciferase; in the presence of 3 nM progesterone; 24 h treatment; read-out: IC50 (concentration giving half-maximal decrease in 3 nM progesterone induced PRE-luciferase activity)
Protocol: The procedure used and results obtained are described in Example 2 below.
Growth medium: DMEM (BioWhittaker) containing 10% (v/v) fetal bovine serum (heat inactivated), 0.1 mM MEM non-essential amino acids, 100 U/ml penicillin, […] streptomycin, and 2 mM GlutaMax (GIBCO, BRL).
Experimental medium: DMEM (BioWhittaker), phenol red-free, containing 10% (v/v) charcoal-stripped fetal bovine serum (heat-inactivated), 0.1 mM MEM non-essential amino acids, 100 U/ml penicillin, […] streptomycin, and 2 mM GlutaMax (GIBCO, BRL).
Stock CV-1 cells were maintained in growth medium. Co-transfection was done using 1.2×10^7 cells, 5 mg pLEM plasmid with hPR-B inserted at Sph1 and BamH1 sites, 10 mg pGL3 plasmid with two PREs upstream of the luciferase sequence, and 50 mg sonicated calf thymus DNA as carrier DNA in […]. Electroporation was carried out at 260 V and […] in a Biorad Gene Pulser II. After electroporation, cells were resuspended in growth medium and plated in 96-well plate at 40,000 cells/well in […]. Following overnight incubation, the medium was changed to experimental medium Cells were then treated with reference or test compounds in experimental medium. Compounds were tested for antiprogestational activity in the presence of 3 nM progesterone. […] Luciferase activity was measured using luciferase reagents from Promega. […]

IC50: 900 nM
SMILES: O=S1(=O)Nc2ccc(-c3cccc(Cl)c3)cc2C12CCCCC2 [Example 1]
